In patent US9593149B2, “Amylin and calcitonin receptor agonist” (Novo Nordisk A/S, priority 2014, dated 2017):
≈ marks a conversion by molar mass, not a printed value. Numbered stars: 1 amine (or outer) side, 2 acyl side, 3 side chain; on linkers, the order of the positions; unused ones are H or OH. Peptide text beside a SMILES is read from it. * marks the point of attachment. C20 diacid = O=C(O)CCCCCCCCCCCCCCCCCCC(=O)*; C18 diacid = O=C(O)CCCCCCCCCCCCCCCCC(=O)*; γGlu = O=C(O)[C@H](CCC(=O)[*:2])N[*:1]; AEEA = NCCOCCOCC(=O)O

Experiment: Assay (IV) determination of solubility
Assay type: physicochemical
Description: Assay (IV)—Determination of Solubility
The mimylin peptide was dissolved in water at ˜500 nmol/ml and mixed 1:1 with a series of buffers (100 mM glycylglycine pH 3.0, 100 mM glycylglycine pH 4.0, 100 mM glycylglycine pH 5.0, 100 mM bistrispropane pH 6.0, 100 mM bistrispropane pH 6.5, 100 mM bistrispropane pH 7.0, 100 mM bistrispropane pH 7.5, 100 mM bistrispropane pH 8.0).

With CC(C)C[C@H](NC(=O)[C@H](C)NC(=O)[C@H](C)NC(=O)[C@@H](NC(=O)[C@H](CO)NC(=O)[C@H](CC(C)C)NC(=O)[C@H](CCC(=O)O)NC(=O)[C@H](CO)NC(=O)[C@H](C)NC(=O)COCCOCCNC(=O)COCCOCCNC(=O)COCCOCCNC(=O)CC[C@H](NC(=O)CCCCCCCCCCCCCCCCCCC(=O)O)C(=O)O)[C@@H](C)O)C(=O)NCC(=O)N[C@@H](CCCNC(=N)N)C(=O)N[C@@H](CC(C)C)C(=O)N[C@@H](CO)C(=O)N[C@@H](C)C(=O)N[C@@H](CCC(=O)O)C(=O)N[C@@H](CC(C)C)C(=O)N[C@@H](Cc1cnc[nH]1)C(=O)N[C@@H](CCC(=O)O)C(=O)N[C@@H](CC(C)C)C(=O)N[C@@H](C)C(=O)N[C@H](C(=O)N[C@@H](CC(C)C)C(=O)N1CCC[C@H]1C(=O)N[C@@H](CCCNC(=N)N)C(=O)N[C@H](C(=O)N[C@@H](CCC(=O)O)C(=O)N[C@H](C(=O)NCC(=O)N[C@@H](CO)C(=O)NCC(=O)N[C@@H](CO)C(=O)N1CCC[C@H]1C(N)=O)[C@@H](C)O)[C@@H](C)O)[C@@H](C)O [compound 43, [N-terminal(C20 diacid-gGlu-3xOEG), des1, 30S, 31G]mimylin] ({C20 diacid-γGlu-AEEA-AEEA-AEEA}-ASELSTAALGRLSAELHELATLPRTETGSGSP-NH2) the Solubility (pH 3.0) was “≧200 μM”, the Solubility (pH 4.0) was “≧200 μM” and the Solubility (pH 5.0) was “≧200 μM”. The Solubility (pH 6.0) was “≧200 μM”, the Solubility (pH 6.5) was “≧200 μM” and the Solubility (pH 7.0) was “≧200 μM”. The Solubility (pH 7.5) was “≧200 μM” and the Solubility (pH 8.0) was “≧200 μM”.

For CC(C)C[C@H](NC(=O)[C@H](CCCNC(=N)N)NC(=O)CNC(=O)[C@H](CC(C)C)NC(=O)[C@@H](NC(=O)[C@H](C)NC(=O)[C@@H](NC(=O)[C@H](CO)NC(=O)[C@@H](NC(=O)[C@H](CCC(=O)O)NC(=O)[C@H](CO)NC(=O)[C@H](C)NC(=O)[C@H](CCC(=O)O)NC(=O)CCCCCCCCCCCCCCCCC(=O)O)C(C)C)[C@@H](C)O)C(C)C)C(=O)N[C@@H](CO)C(=O)N[C@@H](C)C(=O)N[C@@H](CCC(=O)O)C(=O)N[C@@H](CC(C)C)C(=O)N[C@@H](Cc1cnc[nH]1)C(=O)N[C@@H](CCC(=O)O)C(=O)N[C@H](C(=O)N[C@@H](C)C(=O)N[C@H](C(=O)N[C@@H](CC(C)C)C(=O)N1CCC[C@H]1C(=O)N[C@@H](CCCNC(=N)N)C(=O)N[C@H](C(=O)N[C@@H](CCC(=O)O)C(=O)N[C@H](C(=O)NCC(=O)N1CCC[C@H]1C(=O)N[C@@H](CCC(=O)O)C(=O)N[C@@H](CO)C(=O)N1CCC[C@H]1C(N)=O)[C@@H](C)O)[C@@H](C)O)[C@@H](C)O)C(C)C [compound 36, [N-terminal(C18 diacid), 5V, 9V, 20V]mimylin] ({C18 diacid}-EASEVSTAVLGRLSAELHEVATLPRTETGPESP-NH2), the solubility at 18 h (pH 3.0) was 117 µM (≈ 436 µg/mL), the solubility at 18 h (pH 4.0) was 9 µM (≈ 33.6 µg/mL) and the solubility at 18 h (pH 5.0) was 10 µM (≈ 37.3 µg/mL). The Solubility (pH 6.0) was “≧200 μM”, the Solubility (pH 6.5) was “≧200 μM” and the Solubility (pH 7.0) was “≧200 μM”. For the same compound, the Solubility (pH 7.5) was “≧200 μM” and the Solubility (pH 8.0) was “≧200 μM”.

In the case of CC(C)C[C@H](NC(=O)[C@H](CO)NC(=O)[C@H](C)NC(=O)[C@@H](NC(=O)[C@H](CO)NC(=O)[C@H](CC(C)C)NC(=O)[C@H](CCC(=O)O)NC(=O)[C@H](CO)NC(=O)[C@H](C)NC(=O)CC[C@H](NC(=O)CCCCCCCCCCCCCCCCCCC(=O)O)C(=O)O)[C@@H](C)O)C(=O)NCC(=O)N[C@@H](CCCNC(=N)N)C(=O)N[C@@H](CC(C)C)C(=O)N[C@@H](CO)C(=O)N[C@@H](C)C(=O)N[C@@H](CCC(=O)O)C(=O)N[C@@H](CC(C)C)C(=O)N[C@@H](Cc1cnc[nH]1)C(=O)N[C@@H](CCC(=O)O)C(=O)N[C@@H](CC(C)C)C(=O)N[C@@H](C)C(=O)N[C@H](C(=O)N[C@@H](Cc1ccc(O)cc1)C(=O)N1CCC[C@H]1C(=O)N[C@@H](CCCNC(=N)N)C(=O)N[C@H](C(=O)N[C@@H](CCC(=O)O)C(=O)N[C@H](C(=O)NCC(=O)N[C@@H](CO)C(=O)NCC(=O)N[C@@H](CO)C(=O)N[C@@H](Cc1ccc(O)cc1)C(N)=O)[C@@H](C)O)[C@@H](C)O)[C@@H](C)O [compound 91, [N-terminal(C20 diacid-gGlu), des1, 9S, 23Y, 30S, 31G, 33Y]mimylin] ({C20 diacid-γGlu}-ASELSTASLGRLSAELHELATYPRTETGSGSY-NH2), the Solubility (pH 3.0) was “≧200 μM”, the solubility at 18 h (pH 4.0) was 7 µM (≈ 26.7 µg/mL) and the solubility at 18 h (pH 5.0) was 29 µM (≈ 110 µg/mL). The Solubility (pH 6.0) was “≧200 μM”, the Solubility (pH 6.5) was “≧200 μM” and the Solubility (pH 7.0) was “≧200 μM”. The Solubility (pH 7.5) was “≧200 μM” and the Solubility (pH 8.0) was “≧200 μM”.

For CC(C)C[C@H](NC(=O)[C@H](C)NC(=O)[C@H](C)NC(=O)[C@@H](NC(=O)[C@H](CO)NC(=O)[C@H](CC(C)C)NC(=O)[C@H](CCC(=O)O)NC(=O)[C@H](CO)NC(=O)[C@H](C)NC(=O)CC[C@H](NC(=O)CCCCCCCCCCCCCCCCCCC(=O)O)C(=O)O)[C@@H](C)O)C(=O)NCC(=O)N[C@@H](CCCNC(=N)N)C(=O)N[C@@H](CC(C)C)C(=O)N[C@@H](CO)C(=O)N[C@@H](C)C(=O)N[C@@H](CCC(=O)O)C(=O)N[C@@H](CC(C)C)C(=O)N[C@@H](Cc1cnc[nH]1)C(=O)N[C@@H](CCC(=O)O)C(=O)N[C@@H](CC(C)C)C(=O)N[C@@H](C)C(=O)N[C@H](C(=O)N[C@@H](CC(C)C)C(=O)N1CCC[C@H]1C(=O)N[C@@H](CCCNC(=N)N)C(=O)N[C@H](C(=O)N[C@@H](CCC(=O)O)C(=O)N[C@H](C(=O)NCC(=O)N[C@H](C(=O)NCC(=O)N[C@H](C(=O)N1CCC[C@H]1C(N)=O)[C@@H](C)O)[C@@H](C)O)[C@@H](C)O)[C@@H](C)O)[C@@H](C)O [compound 74, [N-terminal(C20 diacid-gGlu), des1, 30T, 31G, 32T]mimylin] ({C20 diacid-γGlu}-ASELSTAALGRLSAELHELATLPRTETGTGTP-NH2), the Solubility (pH 3.0) was “≧200 μM”, the Solubility (pH 4.0) was “≧200 μM” and the Solubility (pH 5.0) was “≧200 μM”. For the same compound, the Solubility (pH 6.0) was “≧200 μM”, the Solubility (pH 6.5) was “≧200 μM” and the Solubility (pH 7.0) was “≧200 μM”. The Solubility (pH 7.5) was “≧200 μM” and the Solubility (pH 8.0) was “≧200 μM”.

In the case of CC(C)C[C@H](NC(=O)[C@H](CCC(=O)O)NC(=O)[C@H](Cc1cnc[nH]1)NC(=O)[C@H](CC(C)C)NC(=O)[C@H](CCC(=O)O)NC(=O)[C@H](C)NC(=O)[C@H](CO)NC(=O)[C@H](CC(C)C)NC(=O)[C@H](CCCNC(=N)N)NC(=O)CNC(=O)[C@@H](NC(=O)[C@@H](NC(=O)[C@H](C)NC(=O)[C@@H](NC(=O)[C@H](CO)NC(=O)[C@@H](NC(=O)[C@H](CCC(=O)O)NC(=O)[C@H](CO)NC(=O)[C@H](C)NC(=O)CC[C@H](NC(=O)CCCCCCCCCCCCCCCCC(=O)O)C(=O)O)C(C)C)[C@@H](C)O)C(C)C)C(C)C)C(=O)N[C@@H](C)C(=O)N[C@H](C(=O)N[C@@H](CC(C)C)C(=O)N1CCC[C@H]1C(=O)N[C@@H](CCCNC(=N)N)C(=O)N[C@H](C(=O)N[C@@H](CCC(=O)O)C(=O)N[C@H](C(=O)NCC(=O)N[C@@H](CO)C(=O)NCC(=O)N[C@@H](CO)C(=O)N1CCC[C@H]1C(N)=O)[C@@H](C)O)[C@@H](C)O)[C@@H](C)O [compound 96, [N-terminal(C18 diacid-gGlu), des1, 5V, 9V, 10V, 30S, 31G]mimylin] ({C18 diacid-γGlu}-ASEVSTAVVGRLSAELHELATLPRTETGSGSP-NH2), the Solubility (pH 3.0) was “≧200 μM”, the solubility at 18 h (pH 4.0) was 177 µM (≈ 646 µg/mL) and the solubility at 18 h (pH 5.0) was 45 µM (≈ 164 µg/mL). The Solubility (pH 6.0) was “≧200 μM”, the Solubility (pH 6.5) was “≧200 μM” and the Solubility (pH 7.0) was “≧200 μM”. The Solubility (pH 7.5) was “≧200 μM” and the Solubility (pH 8.0) was “≧200 μM”.

In the case of CC(C)C[C@H](NC(=O)[C@H](C)NC(=O)[C@H](C)NC(=O)[C@@H](NC(=O)[C@H](CO)NC(=O)[C@H](CC(C)C)NC(=O)[C@H](CCC(=O)O)NC(=O)[C@H](CO)NC(=O)[C@H](C)NC(=O)CC[C@H](NC(=O)CCCCCCCCCCCCCCCCCCC(=O)O)C(=O)O)[C@@H](C)O)C(=O)NCC(=O)N[C@@H](CCCNC(=N)N)C(=O)N[C@@H](CC(C)C)C(=O)N[C@@H](CO)C(=O)N[C@@H](C)C(=O)N[C@@H](CCC(=O)O)C(=O)N[C@@H](CC(C)C)C(=O)N[C@@H](Cc1cnc[nH]1)C(=O)N[C@@H](CCC(=O)O)C(=O)N[C@@H](CC(C)C)C(=O)N[C@@H](C)C(=O)N[C@H](C(=O)N[C@@H](CC(C)C)C(=O)N1CCC[C@H]1C(=O)N[C@@H](CCCNC(=N)N)C(=O)N[C@H](C(=O)N[C@@H](CCC(=O)O)C(=O)N[C@H](C(=O)NCC(=O)N[C@@H](CO)C(=O)NCC(=O)N[C@@H](CO)C(=O)N[C@@H](C)C(N)=O)[C@@H](C)O)[C@@H](C)O)[C@@H](C)O [compound 65, [N-terminal(C20 diacid-gGlu), des1, 30S, 31G, 33A]mimylin] ({C20 diacid-γGlu}-ASELSTAALGRLSAELHELATLPRTETGSGSA-NH2), the Solubility (pH 3.0) was “≧200 μM”, the Solubility (pH 4.0) was “≧200 μM” and the Solubility (pH 5.0) was “≧200 μM”. For the same compound, the Solubility (pH 6.0) was “≧200 μM”, the Solubility (pH 6.5) was “≧200 μM” and the Solubility (pH 7.0) was “≧200 μM”. The Solubility (pH 7.5) was “≧200 μM” and the Solubility (pH 8.0) was “≧200 μM”.
